The text below walks through data of patent US7393640B2, “Terminal-phosphate-labeled nucleotides with new linkers” (GE Healthcare Bio-Sciences Corp., priority 2003, dated 2008).

Read-outs that look alike come from different tables or passages of the source.

One assay has as its system various polymerases. Description: Effect of MnCl2 on incorporation of terminal-phosphate labeled nucleotide on oligo dT/poly dA. The assay is classed as biochemical. Particulars: 10 uM nucleotide, 60° C. The method, then:
Oligo dT (35mer) was annealed with poly dA by mixing equal volumes of each at 20 uM conc, and incubating at 80° C. for 4 min and instant cooling on ice. 1 ul of this solution was mixed into a 20 ul reaction containing 25 mM Hepes, pH 8.0, 0.01% Tween-20, 10 uM dT4P-DDAO, 0.005 u/ul BAP, a polymerase at concentrations shown in FIG. 7 and various concentrations of MnCl2—and MgCl2.

The test system of assay [1] is Thermo Sequenase I DNA polymerase. The experiment in a line: Relative incorporation of phosphate labeled versus base labeled nucleotides in magnesium or manganese buffer. Particulars: 5 mM MnCl2 vs 5 mM MgCl2, 1 μM nucleotide, 50 degrees C., 10 minutes. In kind it is biochemical. The method, then: Reactions (10 μl, 50 degrees C., 10 minutes) contained 1× reaction buffer (25 mM HEPES 8.5, 0.01% tween-20), 3 μg activated DNA (Chromosomal DNA), 5 mM either MnCl2 (circles) or MgCl2 (squares), 1 μM either FAM-TAM-11-ddTTP (dashed lines) or ddT4P-DDAO (solid lines), with a serial 4 fold dilution of Thermo Sequenase I™ DNA polymerase from 10 units per reaction down to 0.01 units per reaction. Results (FIG. 3) were plotted out both on a linear scale and logarithmic scale to show both linearity with enzyme and relative incorporation efficiency.

Assay [2] deals with cloned DNA polymerase I genetically engineered to eliminate 3′-5′ exonuclease activity, 5′-3′ exonuclease activity and discrimination against …. Description: Template-directed incorporation of gamma phosphate-labeled ddNTP with shrimp alkaline phosphatase, fluorescence read-out. In kind it is biochemical. The following applies: 2 μM nucleotide, 5 mM MgCl2, 0.25 mM MnCl2, shrimp alkaline phosphatase. The method, then: Reactions were assembled at room temperature (23° C.) using the dideoxynucleotide of Example (1).
Referring now to FIG. 1, for template 1 (SEQ ID NO: 2) in the present example, DNA polymerase would be expected to extend the primer with labeled ddGTP. Similarly, for template 2 (SEQ ID NO: 3) in FIG. 1, DNA polymerase would be expected to extend the primer with ddATP, but not with labeled ddGTP.
(§1) Reaction conditions: A 70 μl reaction containing 25 mM Tris, pH 8.0, 5% glycerol 5 mM MgCl2, 0.5 mM beta-mercaptoethanol, 0.01% tween-20, 0.25 units shrimp alkaline phosphatase, 100 nM primer annealed to template (the next template nucleotide is either dCMP or dTMP, as indicated), and 2 μM ddGTP-CF3-Coumarin was assembled in a quartz fluorescence ultra-microcuvet in a LS-55 Luminescence Spectrometer (Perkin Elmer), operated in time drive mode. Excitation and emission wavelengths are 390 nm and 500 nm respectively. Slit widths were 5 nm for excitation slits, 15 nm for emission slits. The reaction was initiated by the addition of 0.35 μl (11 units) of a cloned DNA polymerase I genetically engineered to eliminate 3′-5′ exonuclease activity, 5′-3′ exonuclease activity and discrimination against dideoxynucleotides and 0.25 mM MnCl2.
Reactions were assembled at room temperature (23° C.) using the dideoxynucleotide of Example (2).
Referring now to FIG. 2, for template 2 (SEQ ID NO: 3) in the present example, DNA polymerase would be expected to extend the primer with labeled ddATP. Similarly, for template 1 (SEQ ID NO: 2) in FIG. 2, DNA polymerase would be expected to extend the primer with ddGTP, but not with labeled ddATP.
as §1, with “template,” for “template (the next template nucleotide is either dCMP or dTMP, as indicated),”, “ddATP-CN-Coumarin” for “ddGTP-CF3-Coumarin”, “410” for “390”, “450” for “500”

A further assay concerns Phi 29 exo-polymerase. The following applies: 0.7 mM MnCl2 only, 25 uM nucleotide, template SEQ ID NO: 4 (FIG. 6).
Where [3] appears, read: Primer: Template 1 (SEQ ID NO: 2), next template nucleotide dC.
[4] abbreviates: Primer: Template 2 (SEQ ID NO: 3), next template nucleotide dT.

Sequence of Phi 29 exo-polymerase (P03680 190-575 limits assumed): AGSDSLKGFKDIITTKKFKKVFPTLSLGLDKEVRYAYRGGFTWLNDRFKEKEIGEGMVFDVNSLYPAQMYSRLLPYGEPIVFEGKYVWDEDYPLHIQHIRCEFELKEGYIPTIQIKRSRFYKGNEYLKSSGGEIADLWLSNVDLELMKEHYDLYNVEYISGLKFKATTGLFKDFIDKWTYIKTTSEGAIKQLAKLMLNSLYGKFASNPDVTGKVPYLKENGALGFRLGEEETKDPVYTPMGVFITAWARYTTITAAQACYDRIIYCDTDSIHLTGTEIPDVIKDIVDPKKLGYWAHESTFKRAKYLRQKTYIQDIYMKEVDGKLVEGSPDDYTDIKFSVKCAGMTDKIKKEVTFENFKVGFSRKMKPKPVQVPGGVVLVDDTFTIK
Description for Phi 29 exo-polymerase: Using the same primer as in example 9 and template (SEQ ID NO: 4), incorporation of dCTP-DAH-ROX at various times after the reaction was initiated, was investigated. Assay conditions were as follows: Total reaction volume: 30 ul containing 100 nM primer/template, 100 nM Phi 29 exo-polymerase, 50 mM Tris pH 7.5, 75 mM KCl, 0.7 mM MnCl2, 0.1 mM DTT, 0.3 mg/ml BSA. Reaction was initiated by addition of ROX-dCTP to a conc. of 25 uM.

Regarding `Cc1cn([C@H]2C[C@H](O)[C@@H](COP(=O)(O)OP(=O)(O)OP(=O)(O)OP(=O)(O)Oc3ccc4c(c3)C(C)(C)C3=C(Cl)C(=O)C(Cl)=CC3=N4)O2)c(=O)[nH]c1=O` [dT4P-DDAO, 2′-Deoxythymidine-5′-(δ-7-(9H-(1,3-dichloro-9,9-dimethylacridin-2-one)))tetraphosphate], the “rate of incorporation in the absence of MnCl2” value in the assay with various polymerases (15 or 30 minutes (FIG. 7)) is on record as “extremely slow”. The “effect of MnCl2, alone or in the presence of MgCl2, on the rate of incorporation” value with various polymerases (15 or 30 minutes, all the polymerases tested (FIG. 7)) is “major positive impact on the rate of incorporation”.

As to `Cc1cn([C@H]2CC[C@@H](COP(=O)(O)OP(=O)(O)OP(=O)(O)OP(=O)(O)Oc3ccc4c(c3)C(C)(C)C3=C(Cl)C(=O)C(Cl)=CC3=N4)O2)c(=O)[nH]c1=O` [ddT4P-DDAO, δ-9H(1,3-dichloro-9,9-dimethylacridin-2-one-7-yl)-dideoxythymidine-5′-tetraphosphate], the “increase in incorporation efficiency in the manganese buffer relative to the magnesium buffer” value in assay [1] was 28 fold.

As for `N#Cc1cc2ccc(OP(=O)(O)OP(=O)(O)OP(=O)(O)OC[C@@H]3CC[C@H](n4cnc5c(N)ncnc54)O3)cc2oc1=O` [gamma labeled ddATP, γ-(3-cyanocoumarinyl)dideoxyadenosine-5′-triphosphate], the results for the dye emission result in assay [2] (setting [3]) and in assay [2] (setting [4]) were “No detectable dye emission” and “dye emission was detected”, respectively.

On to `Nc1nc2c(ncn2[C@H]2CC[C@@H](COP(=O)(O)OP(=O)(O)OP(=O)(O)Oc3ccc4c(C(F)(F)F)cc(=O)oc4c3)O2)c(=O)[nH]1` [gamma labeled ddGTP, γ-(4-trifluoromethylcoumarinyl)dideoxyguanosine-5′-triphosphate], for which the dye emission entry in assay [2] (setting [3]) is on record as “dye emission was detected”; in assay [2] (setting [4]), “No detectable dye emission”.

As for “ROX-amidoheptyl-gamma-amido-deoxycytidine-triphosphate [dCTP-DAH-ROX]”, the misincorporation result is “no misincorporation takes place” in the assay with Phi 29 exo-polymerase and “No misincorporation was observed” in the assay with Phi 29 exo-polymerase (listed as dCTP-γ-ROX).
